Assay results taken from publication PMC4594923, “Food Polyphenols Fail to Cause a Biologically Relevant Reduction of COX-2 Activity” (PLoS ONE, 2015).
Marks after values point to notes of the source that are not given here.

What was measured:
[1] = tested on: arachidonic acid (AA) cascade; experiment: kidney tissue oxylipin/PG levels in LPS induced sepsis in mice; conditions: kidney tissue 24 h after LPS treatment, LPS +, mean;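 also: male C57BL/6N mice challenged with LPS, kidney taken 24 h later, oxylipins quantified by LC-MS after solid-phase extraction of tissue homogenate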
[2] = tested on: arachidonic acid (AA) cascade; experiment: liver tissue oxylipin/PG levels in LPS induced sepsis in mice; assay type: in vivo, C57BL/6N mice; conditions: liver tissue 24 h after LPS treatment;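 also: male C57BL/6N mice pretreated i.p. with polyphenols at 100 mg/kg bw or vehicle before LPS, liver oxylipins measured by LC-MS after solid-phase extraction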

O=c1cc(-c2ccc(O)cc2)oc2cc(O)cc(O)c12 [Apigenin, apigenin]
1a,1b-dihomo-PGF2α [1]: 1.3 nM | 4,5-DiHDPE [1]: 15 nM | 4-HDHA [1]: 19 nM | 5(6)-EpETrE [1]: 130^* nM | 5,6-DiHETrE [1]: 1.6^* nM | 5-HEPE [1]: 1.0 nM | 5-HETE [1]: 12 nM | 5-oxo-ETE [1]: 28 nM | 6-keto-PGF1α [1]: 55 nM | 7,8-DiHDPE [1]: 1.6 nM | 7-HDHA [1]: 3.5 nM | 8(9)-EpETrE [1]: 32^† nM | 8,9-DiHETrE [1]: 1.6 nM | 8-HDHA [1]: 20^† nM | 8-HETE [1]: 3.4 nM | 8-iPF2a [1]: 1.8 nM | 9(10)-EpODE [1]: 13 nM | 9(10)-EpOME [1]: 150 nM | 9(10)-Epoxystearic acid [1]: 77^* nM | 9,10,13-TriHOME [1]: 4.8 nM | 9,10-DiHODE [1]: 1.1 nM | 9,10-DiHOME [1]: 15^† nM | 9,10-Dihydroxystearic acid [1]: 57 nM | 9,12,13-TriHOME [1]: 27 nM | 9-HETE [1]: 3.5 nM | 9-HODE [1]: 150 nM | 9-HOTrE [1]: 3.2 nM | 9-oxo-ODE [1]: 46 nM | 10(11)-EpDPE [1]: 82^‡ nM | 10,11-DiHDPE [1]: 1.9 nM | 10-HDHA [1]: 3.6 nM | 11(12)-EpETE [1]: 4.4 nM | 11(12)-EpETrE [1]: 80^† nM | 11,12-DiHETrE [1]: 2.1 nM | 11-HDHA [1]: 5.7 nM | 11-HETE [1]: 16 nM | 12(13)-EpODE [1]: 6.0 nM | 12(13)-EpOME [1]: 110 nM | 12,13-DiHOME [1]: 32^* nM | 12-HEPE [1]: 1.1 nM | 12-HETE [1]: 10 nM | 13(14)-EpDPE [1]: 65^† nM | 13,14-DiHDPE [1]: 3.0 nM | 13,14-dihydro-15-keto-PGF2α [1]: 2.7 nM | 13-HDHA [1]: 6.9 nM | 13-HODE [1]: 120 nM | 13-HOTrE [1]: 3.3 nM | 13-oxo-ODE [1]: 8.5 nM | 14(15)-EpETE [1]: 5.4^‡ nM | 14(15)-EpETrE [1]: 60^† nM | 14,15-DiHETE [1]: 0.7 nM | 14,15-DiHETrE [1]: 5.9 nM | 14-HDHA [1]: 8.6 nM | 15(16)-EpODE [1]: 65 nM | 15(S)-HETrE [1]: 4.6 nM | 15,16-DiHODE [1]: 13 nM | 15-HETE [1]: 22 nM | 15-oxo-ETE [1]: 8.2 nM | 16(17)-EpDPE [1]: 61^‡ nM | 16,17-DiHDPE [1]: 8.2 nM | 16-HDHA [1]: 6.3 nM | 17(18)-EpETE [1]: 6.2^‡ nM | 17,18-DiHETE [1]: 2.7 nM | 17-HDHA [1]: 17 nM | 18-HEPE [1]: 1.5 nM | 19(20)-EpDPE [1]: 92^‡ nM | 19,20-DiHDPE [1]: 59 nM | 20-HDHA [1]: 18 nM | 20-HEPE [1]: 5.2 nM | EKODE [1]: 40 nM | PGD2 [1]: 13 nM | PGE1 [1]: 4.7 nM | PGE2 [1]: 110 nM | PGF1α [1]: 2.8 nM | PGF2α [1]: 33 nM | TXB2 [1]: 2.0 nM | 5,6-DiHETE ([1]; < = below LOQ): < 0.25 nM | 5-iPF2α ([1]; < = below LOQ): < 1.0 nM | 8(9)-EpETE ([1]; < = below LOQ): 2.9^† nM | 12,13-DiHODE ([1]; < = below LOQ): < 2.0 nM | 13,14-dihydro-15-keto-PGE1 ([1]; < = below LOQ): 0.41 nM | 20-HETE ([1]; < = below LOQ): < 2.7 nM | PGD1 ([1]; < = below LOQ): < 0.50 nM | PGF2α ([1]; second listing of PGF2α (r9)): 33 nM | 4,5-DiHDPE concentration ([2]; mean): 74 nM | 4-HDHA concentration ([2]; mean): 12 nM | 5(6)-EpETrE concentration ([2]; mean): 97 nM | 5,6-DiHETE concentration ([2]; mean): < 0.30 nM | 5,6-DiHETrE concentration ([2]; mean): 5.1 nM | 5-HEPE concentration ([2]; mean): 2.8 nM | 5-HETE concentration ([2]; mean): 2.8 nM | 5-iPF2α concentration ([2]; mean): 1.1 nM | 5-oxo-ETE concentration ([2]; mean): 15 nM | 6-keto-PGF1α concentration ([2]; mean): 32 nM | 7,8-DiHDPE concentration ([2]; mean): 5.2 nM | 7-HDHA concentration ([2]; mean): 3.2 nM | 8(9)-EpETE concentration ([2]; mean): 2.1 nM | 8(9)-EpETrE concentration ([2]; mean): 20 nM | 8,9-DiHETE concentration ([2]; mean): 2.3 nM | 8,9-DiHETrE concentration ([2]; mean): 10 nM | 8,15-DiHETE concentration ([2]; mean): < 0.80 nM | 8-HDHA concentration ([2]; mean): 20 nM | 8-HEPE concentration ([2]; mean): 0.98 nM | 8-HETE concentration ([2]; mean): 8.5 nM | 8-iPF2α concentration ([2]; mean): 2.1 nM | 9(10)-EpODE concentration ([2]; mean): 11 nM | 9(10)-EpOME concentration ([2]; mean): 120 nM | 9(10)-Epoxystearic acid concentration ([2]; mean): 86 nM | 9,10,13-TriHOME concentration ([2]; mean): 6.4^* nM | 9,10-DiHODE concentration ([2]; mean): 8.6 nM | 9,10-DiHOME concentration ([2]; mean): 69 nM | 9,10-Dihydroxystearic acid concentration ([2]; mean): 53 nM | 9,12,13-TriHOME concentration ([2]; mean): 41 nM | 9-HETE concentration ([2]; mean): 5.2 nM | 9-HODE concentration ([2]; mean): 370 nM | 9-HOTrE concentration ([2]; mean): 8.1 nM | 9-oxo-ODE concentration ([2]; mean): 120 nM | 10(11)-EpDPE concentration ([2]; mean): 30 nM | 10,11-DiHDPE concentration ([2]; mean): 9.8 nM | 10-HDHA concentration ([2]; mean): 5.7 nM | 11(12)-EpETE concentration ([2]; mean): 4.4 nM | 11(12)-EpETrE concentration ([2]; mean): 47 nM | 11,12-DiHETE concentration ([2]; mean): 2.9 nM | 11,12-DiHETrE concentration ([2]; mean): 18 nM | 11-HDHA concentration ([2]; mean): 5.5 nM | 11-HETE concentration ([2]; mean): 21 nM | 12(13)-EpODE concentration ([2]; mean): 5.0 nM | 12(13)-EpOME concentration ([2]; mean): 99 nM | 12,13-DiHODE concentration ([2]; mean): 5.7 nM | 12,13-DiHOME concentration ([2]; mean): 140^† nM | 12-HEPE concentration ([2]; mean): 27 nM | 12-HETE concentration ([2]; mean): 120 nM | 13(14)-EpDPE concentration ([2]; mean): 24 nM | 13,14-DiHDPE concentration ([2]; mean): 11 nM | 13,14-dihydro-15-keto-PGE1 concentration ([2]; mean): 0.57 nM | 13,14-dihydro-15-keto-PGF2α concentration ([2]; mean): 7.0 nM | 13-HDHA concentration ([2]; mean): 10 nM | 13-HODE concentration ([2]; mean): 370 nM | 13-HOTrE concentration ([2]; mean): 18 nM | 13-oxo-ODE concentration ([2]; mean): 16 nM | 14(15)-EpETE concentration ([2]; mean): 3.1 nM | 14(15)-EpETrE concentration ([2]; mean): 38 nM | 14,15-DiHETE concentration ([2]; mean): 7.4 nM | 14,15-DiHETrE concentration ([2]; mean): 43 nM | 14-HDHA concentration ([2]; mean): 68 nM | 15(16)-EpODE concentration ([2]; mean): 24 nM | 15(S)-HETrE concentration ([2]; mean): 9.0 nM | 15,16-DiHODE concentration ([2]; mean): 49 nM | 15-HEPE concentration ([2]; mean): 3.4 nM | 15-HETE concentration ([2]; mean): 31 nM | 15-oxo-ETE concentration ([2]; mean): 4.0 nM | 16(17)-EpDPE concentration ([2]; mean): 23 nM | 16,17-DiHDPE concentration ([2]; mean): 22 nM | 16-HDHA concentration ([2]; mean): 6.0 nM | 17(18)-EpETE concentration ([2]; mean): 4.2 nM | 17,18-DiHETE concentration ([2]; mean): 15 nM | 17-HDHA concentration ([2]; mean): 21 nM | 18-HEPE concentration ([2]; mean): 3.3 nM | 19(20)-EpDPE concentration ([2]; mean): 33 nM | 19,20-DiHDPE concentration ([2]; mean): 110 nM | 20-HDHA concentration ([2]; mean): 22 nM | 20-HEPE concentration ([2]; mean): 15 nM | 20-HETE concentration ([2]; mean): 7.2 nM | EKODE concentration ([2]; mean): 28 nM | PGD1 concentration ([2]; mean): 1.2 nM | PGD2 concentration ([2]; mean): 34 nM | PGE1 concentration ([2]; mean): 2.3 nM | PGE2 concentration ([2]; mean): 15 nM | PGF1α concentration ([2]; mean): 2.8 nM | TXB2 concentration ([2]; mean): 17 nM | TxB3 concentration ([2]; mean): 0.89 nM | dihomo-PGF2α concentration ([2]; mean): 3.6 nM | PGF2α concentration ([2]; mean (first listing, r6)): 26 nM | PGF2α concentration ([2]; mean (second listing, r9)): 26 nM
